The results in this text go back to paper PMC8113459, “Selective inhibition of cullin 3 neddylation through covalent targeting DCN1 protects mice from acetaminophen-induced liver toxicity” (Nature Communications, 2021).

Molecules are shown by their SMILES. Read-outs that look alike come from different tables or passages of the source.

The series in a line: Cell viability assay (WST-8), KYSE70. The format is cell-based, human. The note with it: human, KYSE70 cells, replicates, read-out: cell viability relative to control. Here is the method:
Cell viability assay was performed as previously described. The effect of DCN1 inhibitors on cell growth was evaluated by a WST-8 [2-(2-methoxy-4-nitrophenyl)-3-(4-nitrophenyl)-5-(2,4-disulfophenyl)-2H-tetrazolium, monosodium salt assay (Dojindo Molecular Technologies, Inc). Cells (2000–3000 cells in each well) were seeded in 96-well tissue culture plates in medium (100 μL) and treated with serial dilution of DCN1 inhibitors for 3 days. At the end of incubation, WST-8 dye (20 μL) was added to each well and incubated for 1–3 h, then the absorbance was measured in a microplate reader (Molecular Devices) at 450 nm. Cell growth inhibition was evaluated as the ratio of the absorbance of the sample to that of the control. The values were inserted into Prism software, and the curves and the EC50 values were produced by Prism software.

As for `C=C(CN1CCOCC1)C(=O)NC[C@@H](NC(=O)[C@H](Cc1nc2ccc(C(C)C)cc2s1)NC(=O)CC)C1CCCCC1` [DI-1548], the viability at 72 h was found to be 99.4% (conc 10, 72 h); 104% (conc 30, 72 h); 99.4% (conc 100, 72 h); 94.1% (conc 300, 72 h).
